Measured values published in patent US10294202B2, “Pyrrolidinones as herbicides” (FMC Corporation, priority 2013, dated 2019).

Assays:
Assay in all cases: Test F flood (paddy) test
Settings in all cases: 21 d, scale 0-100
flatsedge, rice = assay type: in vivo, Cyperus iria
Summary of the method: (§1)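 Compounds were applied directly to paddy water held 3 cm above silt loam soil, with rice and weeds at the 2.0–2.5-leaf stage, grown in a greenhouse at 30/27° C under a 16-h photoperiod. Visual ratings (0 no effect to 100 complete control) were made against untreated controls after 21 d.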

redstem = assay type: in vivo, Ammannia coccinea
Summary of the method: as §1

sprangletop, Brdd. = assay type: in vivo, Leptochloa fascicularis
Excerpt: Three plastic pots (ca. 16-cm diameter) per rate were partially filled with sterilized Tama silt loam soil comprising a 35:50:15 ratio of sand, silt and clay and 2.6% organic matter. Separate plantings for each of the three pots were as follows. Seeds from the U.S. of monochoria (Monochoria vaginalis), sedge, umbrella (small-flower umbrella sedge, Cyperus difformis), bulrush, […] bulrush, Scirpus juncoides), and […] (purple […] coccinea), were planted into one 16-cm pot for each rate. Seeds from the U.S. of flatsedge, rice (rice flatsedge, Cyperus iria), sprangletop, Brdd. (bearded sprangletop, Leptochloa fascicularis), one stand of 9 or 10 water seeded rice seedlings (Rice, W.S. Jap, Oryza sativa cv. 'Japonica-[…]' or Rice, W.S. Ind, 'Indica'), and two stands of 3 or 4 seedlings of rice, transplanted (transplanted rice, Oryza sativa cv. 'Japonica-[…]') were planted into one 16-cm pot for each rate. Seeds from the U.S. of barnyardgrass (Echinochloa crus-galli), […] (common […], Alisma plantago-aquatica), and watergrass, late (late watergrass, Echinochloa oryzicola) were planted into one 16-cm pot for each rate. Plantings were sequential so that crop and weed species were at the 2.0 to 2.5-leaf stage at time of treatment. Potted plants were grown in a greenhouse with day/night temperature settings of 30/27° C., and supplemental balanced lighting was provided to maintain a 16-h photoperiod. Test pots were maintained in the greenhouse until test completion. At time of treatment, test pots were flooded to 3 cm above the soil surface, treated by application of test compounds directly to the paddy water, and then maintained at that water depth for the duration of the test. Effects of treatments on rice and weeds were visually evaluated by comparison to untreated controls after 21 d. Plant response ratings, summarized in Table F, are based on a scale of 0 to 100 where 0 is no effect and 100 is complete control. A dash (-) response means no test result.

barnyardgrass = assay type: in vivo, Echinochloa crus-galli
Summary of the method: as §1

## O=C1NCC(c2ccc(C(F)(F)F)c(F)c2)C1C(=O)Nc1cccc(F)c1F (racemic) [Compound 247]
flatsedge, rice; 125 g ai/ha
  Plant response rating, Flatsedge, Rice: 0
flatsedge, rice; 250 g ai/ha
  Plant response rating, Flatsedge, Rice: 0
flatsedge, rice; 500 g ai/ha
  Plant response rating, Flatsedge, Rice: 0
flatsedge, rice; 1000 g ai/ha
  Plant response rating, Flatsedge, Rice: 0
flatsedge, rice; 2000 g ai/ha
  Plant response rating, Flatsedge, Rice: 35
redstem; 125 g ai/ha
  Plant response rating, Redstem: 0
redstem; 250 g ai/ha
  Plant response rating, Redstem: 0
redstem; 500 g ai/ha
  Plant response rating, Redstem: 0
redstem; 1000 g ai/ha
  Plant response rating, Redstem: 50
redstem; 2000 g ai/ha
  Plant response rating, Redstem: 55
sprangletop, Brdd.; 125 g ai/ha
  Plant response rating, Sprangletop, Brdd.: 90
sprangletop, Brdd.; 250 g ai/ha
  Plant response rating, Sprangletop, Brdd.: 95
sprangletop, Brdd.; 500 g ai/ha
  Plant response rating, Sprangletop, Brdd.: 98
sprangletop, Brdd.; 1000 g ai/ha
  Plant response rating, Sprangletop, Brdd.: 98
sprangletop, Brdd.; 2000 g ai/ha
  Plant response rating, Sprangletop, Brdd.: 98
barnyardgrass; 125 g ai/ha
  Plant response rating, Barnyardgrass: 60
barnyardgrass; 250 g ai/ha
  Plant response rating, Barnyardgrass: 65
barnyardgrass; 500 g ai/ha
  Plant response rating, Barnyardgrass: 70
barnyardgrass; 1000 g ai/ha
  Plant response rating, Barnyardgrass: 70
barnyardgrass; 2000 g ai/ha
  Plant response rating, Barnyardgrass: 75
